In PubChem BioAssay (NCI):
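All cell lines were grown in 96-well plates and treated with compound for 48 hours. TGI: concentration producing complete growth inhibition.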

Columns and labels:
Assay in all cases: NCI tumour cell line growth inhibition, 48 h
[1] = tested on: HCT-116 colon
[2] = tested on: OVCAR-5 ovarian
[3] = tested on: DMS 273 small cell lung
[4] = tested on: DMS 114 small cell lung
[5] = tested on: MALME-3M melanoma
[6] = tested on: HL-60(TB) leukemia
[7] = tested on: P388 leukemia
[8] = tested on: UACC-62 melanoma
[9] = tested on: HOP-18 NSCLC
[10] = tested on: SK-OV-3 ovarian
[11] = tested on: CCRF-CEM leukemia
[12] = tested on: K-562 leukemia
[13] = tested on: MCF7 breast
[14] = tested on: SNB-75 CNS
[15] = tested on: SN12C renal
[16] = tested on: OVCAR-8 ovarian
[17] = tested on: P388/ADR leukemia
[18] = tested on: SF-268 CNS
[19] = tested on: NCI-H23 lung
[20] = tested on: SN12K1 renal
[21] = tested on: HOP-92 NSCLC
[22] = tested on: SNB-19 CNS
[23] = tested on: UACC-257 melanoma
[24] = tested on: KM12 colon
[25] = tested on: SF-539 CNS
[26] = tested on: NCI-H460 lung
[27] = tested on: CAKI-1 renal
[28] = tested on: NCI/ADR-RES ovarian
[29] = tested on: KM20L2 colon
[30] = tested on: HT29 colon
[31] = tested on: HCT-15 colon
[32] = tested on: HCC-2998 colon
[33] = tested on: RPMI-8226 leukemia
[34] = tested on: MOLT-4 leukemia
[35] = tested on: NCI-H226 lung
[36] = tested on: U251 CNS
[37] = tested on: HOP-62 NSCLC
[38] = tested on: SF-295 CNS
[39] = tested on: SW-620 colon
[40] = tested on: COLO 205 colon
[41] = tested on: NCI-H522 lung
[42] = tested on: IGROV1 ovarian
[43] = tested on: SNB-78 CNS
[44] = tested on: A498 renal
[45] = tested on: LOX IMVI melanoma
[46] = tested on: OVCAR-4 ovarian
[47] = tested on: DLD-1 colon
[48] = tested on: M19-MEL melanoma
[49] = tested on: SK-MEL-28 melanoma
[50] = tested on: RXF 393 renal
[51] = tested on: UO-31 renal
[52] = tested on: XF 498 CNS
[53] = tested on: SK-MEL-2 melanoma
[54] = tested on: SK-MEL-5 melanoma
[55] = tested on: EKVX NSCLC
[56] = tested on: A549 NSCLC
[57] = tested on: OVCAR-3 ovarian
[58] = tested on: RXF-631 renal
[59] = tested on: ACHN renal
[60] = tested on: LXFL 529 NSCLC
[61] = tested on: TK-10 renal
[62] = tested on: 786-0 renal
[63] = tested on: M14 melanoma

O=C1CCCCN1
TGI [1]: > 1120 µM
TGI [2]: > 1120 µM
TGI [3]: > 1120 µM
TGI [4]: > 1120 µM
TGI [5]: > 1120 µM
TGI [6]: > 1120 µM
TGI [7]: > 707 µM
TGI [8]: > 1120 µM
TGI [9]: > 1120 µM
TGI [10]: > 1120 µM
TGI [11]: > 1120 µM
TGI [12]: > 1120 µM
TGI [13]: > 1120 µM
TGI [14]: > 1120 µM
TGI [15]: > 1120 µM
TGI [16]: > 1120 µM
TGI [17]: > 1120 µM
TGI [18]: > 1120 µM
TGI [19]: > 1120 µM
TGI [20]: > 1120 µM
TGI [21]: > 1120 µM
TGI [22]: > 1120 µM
TGI [23]: > 1120 µM
TGI [24]: > 1120 µM
TGI [25]: > 1120 µM
TGI [26]: > 1120 µM
TGI [27]: > 1120 µM
TGI [28]: > 707 µM
TGI [29]: > 1120 µM
TGI [30]: > 1120 µM
TGI [31]: > 1120 µM
TGI [32]: > 1120 µM
TGI [33]: > 1120 µM
TGI [34]: > 1120 µM
TGI [35]: > 1120 µM
TGI [36]: > 1120 µM
TGI [37]: > 1120 µM
TGI [38]: > 1120 µM
TGI [39]: > 1120 µM
TGI [40]: > 1120 µM
TGI [41]: > 1120 µM
TGI [42]: > 1120 µM
TGI [43]: > 1120 µM
TGI [44]: > 52 µM
TGI [45]: > 1120 µM
TGI [46]: > 1120 µM
TGI [47]: > 1120 µM
TGI [48]: > 1120 µM
TGI [49]: > 1120 µM
TGI [50]: > 1120 µM
TGI [51]: > 1120 µM
TGI [52]: > 112 µM
TGI [53]: > 1120 µM
TGI [54]: > 1120 µM
TGI [55]: > 350 µM
TGI [56]: > 1120 µM
TGI [57]: > 1120 µM

O=[N+]([O-])c1cccc(C2=NN(c3ccccc3)C3c4ccccc4OCC23)c1 (centres undefined)
TGI [1]: > 100 µM
TGI [2]: > 100 µM
TGI [3]: > 100 µM
TGI [4]: > 100 µM
TGI [5]: > 100 µM
TGI [6]: > 100 µM
TGI [9]: > 100 µM
TGI [10]: > 100 µM
TGI [11]: > 100 µM
TGI [12]: > 100 µM
TGI [14]: > 100 µM
TGI [58]: > 100 µM
TGI [59]: > 100 µM
TGI [16]: > 100 µM
TGI [18]: > 100 µM
TGI [19]: > 100 µM
TGI [21]: > 100 µM
TGI [22]: > 100 µM
TGI [23]: > 100 µM
TGI [24]: > 100 µM
TGI [60]: > 100 µM
TGI [25]: > 100 µM
TGI [26]: > 100 µM
TGI [29]: > 100 µM
TGI [30]: > 100 µM
TGI [32]: > 100 µM
TGI [33]: > 100 µM
TGI [34]: > 100 µM
TGI [36]: > 100 µM
TGI [37]: > 100 µM
TGI [38]: > 100 µM
TGI [39]: > 100 µM
TGI [61]: > 100 µM
TGI [40]: > 100 µM
TGI [41]: > 100 µM
TGI [42]: > 100 µM
TGI [43]: > 100 µM
TGI [44]: > 100 µM
TGI [45]: > 100 µM
TGI [47]: > 100 µM
TGI [48]: > 100 µM
TGI [49]: > 100 µM
TGI [50]: > 100 µM
TGI [51]: > 100 µM
TGI [52]: > 100 µM
TGI [53]: > 100 µM
TGI [55]: > 100 µM
TGI [56]: > 100 µM
TGI [57]: > 100 µM
TGI [62]: > 100 µM

O=C(CC1(O)C(=O)Nc2ccc([N+](=O)[O-])cc21)c1ccncc1 (centres undefined)
TGI [1]: > 100 µM
TGI [2]: > 100 µM
TGI [4]: 82.8 µM
TGI [5]: 66.2 µM
TGI [6]: 56.5 µM
TGI [8]: > 100 µM
TGI [9]: > 100 µM
TGI [63]: > 100 µM
TGI [10]: > 100 µM
TGI [11]: > 100 µM
TGI [12]: 75.1 µM
TGI [14]: 98.8 µM
TGI [15]: > 100 µM
TGI [58]: 54.7 µM
TGI [59]: > 100 µM
TGI [16]: > 100 µM
TGI [18]: > 100 µM
TGI [19]: 73.1 µM
TGI [22]: > 100 µM
TGI [23]: 32.9 µM
TGI [24]: > 100 µM
TGI [25]: > 100 µM
TGI [26]: > 100 µM
TGI [29]: > 100 µM
TGI [30]: > 100 µM
TGI [31]: > 100 µM
TGI [32]: > 100 µM
TGI [33]: 68.6 µM
TGI [34]: 70.1 µM
TGI [35]: > 100 µM
TGI [36]: 66.1 µM
TGI [37]: > 100 µM
TGI [38]: > 100 µM
TGI [39]: 47.9 µM
TGI [61]: > 100 µM
TGI [40]: > 100 µM
TGI [41]: 71.5 µM
TGI [43]: > 100 µM
TGI [44]: > 100 µM
TGI [45]: 29.3 µM
TGI [46]: 40.9 µM
TGI [47]: > 100 µM
TGI [48]: 63.1 µM
TGI [49]: > 100 µM
TGI [50]: 64.4 µM
TGI [51]: > 100 µM
TGI [52]: 34.2 µM
TGI [53]: > 100 µM
TGI [55]: > 100 µM
TGI [56]: > 100 µM
TGI [57]: 65 µM
TGI [62]: > 100 µM
